Assay results as given in patent US20050112573A1, “Method of detecting toxic substance” (priority 2001, published 2005).

System: yeast genes (level of expressed mRNA)
Assay: DNA chip analysis of expressed mRNA of yeast genes after 2 h culture with a toxic chemical substance
Assay type: cell-based, Saccharomyces cerevisiae S288C
Details: for The level of expressed mRNA in the presence of chemical substance/ (ratio to absence of chemical substance): stress protein genes, DNA chip; for The level of expressed mRNA in the presence of chemical substance/ in its absence, gene YPR184W: yeast gene YPR184W
Description: Yeast (Saccharomyces cerevtisiae S288C (α SUC2mal mel gap2 CUP1)) were cultured at 25° C. on YPD medium (yeast extract 1%, polypepton 2%, glucose 2%). One of toxic chemical substances was added to the cell at logarithmic growth phase, and the cell was further cultured for two hours. Cell was cultured without any chemical substance in the same condition, and was used as control. Concentrations of the chemical substances were defined to inhibit the growth of the yeast but not lead to death.
After the completion of cultivation, the culture was centrifuged to collect the cells. To the cells, sodium acetate buffer (50 mM sodium acetate, 10 mM EDTA, 1% SDS) was added, and the mixture was shaken at 65° C. for five minutes, followed by returning to room temperature, and obtaining the supernatant, which procedure was repeated two times. To the supernatant, ½ amount of a solution of phenol/chloroform was added, and the mixture was centrifuged to give a supernatant, which was added with an equal amount of chloroform, and the mixture was centrifuged to give a supernatant. To the supernatant, an equal amount of isopropanol containing 0.3 M sodium acetate was added, and the mixture was allowed to stand at room temperature for 30 minutes, after which the mixture was centrifuged to give a sediment of the whole RNAs. Seventy % ethanol was added to the sediment, and the mixture was again centrifuged to give a sediment, which was then dried and dissolved in water. mRNA was isolated from the whole RNAs as followings. In view of the fact that a poly A chain is attached to the 3′ terminus of mRNA, a polynucleotide having a poly T structure which was immobilized on the surface of latex beads was used to trap the mRNA, and then the mRNA was washed and eluted with spine column (Oligotex-dT30<Super>mRNA Purification Kit, Takara). Reverse transcription of the mRNA was conducted with a reverse transcriptase (Super Script II Reverse Transcriptase; catalogue No. 18064-014, GibcoBRL) using fluorescence-labeled nucleotides to give cDNAs that were introduced with Cy3-dUTP or Cy5-dUTP during the reverse transcription.
The labeled cDNAs were dissolved in TE buffer (10 mM Tris-HCl/1 mM EDTA, pH8.0), and the solution was dropped on the DNA chip containing the whole genes of yeast (DNA Chip Research Inc. Japan) so that the cDNAs were hybridized on the DNA chip at 65° C. for over 12 hours. The fluoresces intensity of the DNA chip was read with a scanner, and the ratio relative to the fluorescence intensity resulting from the absence of chemical substance was estimated as the following, which is shown in Tables 1 to 9: [formula]
In the Tables, “Intensity” indicated in the rightmost column is a value of the level of expressed mRNA of each gene in control cells as divided by the average level of the expressions of the whole genes.

Question: Which results are given for `C[S+](C)[O-]` [(15), dimethylsulfoxide]?
Answer: The level of expressed mRNA in the presence of chemical substance/The level of expressed mRNA in the absence of chemical substance (yeast gene YMR314W): 1.2; The level of expressed mRNA in the presence of chemical substance/The level of expressed mRNA in the absence of chemical substance (yeast gene YNL006W): 0.7; The level of expressed mRNA in the presence of chemical substance/The level of expressed mRNA in the absence of chemical substance (yeast gene YNL007C): 0.8; The level of expressed mRNA in the presence of chemical substance/ (in its absence), gene YNL025C (yeast gene YNL025C, ratio of DNA chip fluorescence intensity to that without chemical substance): 1.4; The level of expressed mRNA in the presence of chemical substance/ (ratio to absence of chemical substance) (yeast gene YNL064C): 0.7; The level of expressed mRNA in the presence of chemical substance/ (ratio to absence), gene YNL073W (yeast gene YNL073W, mitochondria-located protein genes, 2 h culture with chemical): 0.7; The level of expressed mRNA in the presence of chemical substance/The level of expressed mRNA in the absence of chemical substance (yeast gene YNL093W): 0.6; The level of expressed mRNA in the presence of chemical substance/ (in its absence), gene YNL192W (yeast gene YNL192W, ratio of DNA chip fluorescence intensity to that without chemical substance): 2.1; The level of expressed mRNA in the presence of chemical substance/The level of expressed mRNA in the absence of chemical substance (yeast gene YNL333W): 1.0; The level of expressed mRNA in the presence of chemical substance/The level of expressed mRNA in the absence of chemical substance (yeast gene YNR010W): 0.8; The level of expressed mRNA in the presence of chemical substance/The level of expressed mRNA in the absence of chemical substance (yeast gene YNR069C): 1.0; The level of expressed mRNA in the presence of chemical substance/ (in its absence), gene YNR072W (yeast gene YNR072W, ratio of DNA chip fluorescence intensity to that without chemical substance): 1.8; The level of expressed mRNA in the presence of chemical substance/ (ratio to absence of chemical substance) (yeast gene YNR076W): 1.1; The level of expressed mRNA in the presence of chemical substance/The level of expressed mRNA in the absence of chemical substance (yeast gene YOL013C): 2.7; The level of expressed mRNA in the presence of chemical substance/ (ratio to absence), gene YOL096C (yeast gene YOL096C, mitochondria-located protein genes, 2 h culture with chemical): 1.0; The level of expressed mRNA in the presence of chemical substance/ (in its absence), gene YOL096C (yeast gene YOL096C, ratio of DNA chip fluorescence intensity to that without chemical substance): 1.0; The level of expressed mRNA in the presence of chemical substance/ (in its absence), gene YOL108C (yeast gene YOL108C, ratio of DNA chip fluorescence intensity to that without chemical substance): 1.5; The level of expressed mRNA in the presence of chemical substance/ (in its absence), gene YOL116W (yeast gene YOL116W, ratio of DNA chip fluorescence intensity to that without chemical substance): 0.7; The level of expressed mRNA in the presence of chemical substance/ (ratio to absence of chemical substance) (yeast gene YOL161C): 1.1; The level of expressed mRNA in the presence of chemical substance/The level of expressed mRNA in the absence of chemical substance (yeast gene YOL164W): 1.0; The level of expressed mRNA in the presence of chemical substance/ (ratio to absence of chemical substance) (yeast gene YOR008C): 0.9; The level of expressed mRNA in the presence of chemical substance/ (ratio to absence of chemical substance) (yeast gene YOR009W): 0.6; The level of expressed mRNA in the presence of chemical substance/ (ratio to absence of chemical substance) (yeast gene YOR010C): 0.6; The level of expressed mRNA in the presence of chemical substance/The level of expressed mRNA in the absence of chemical substance (yeast gene YOR036W): 1.2; The level of expressed mRNA in the presence of chemical substance/ (in its absence), gene YOR103C (yeast gene YOR103C, ratio of DNA chip fluorescence intensity to that without chemical substance): 1.4; The level of expressed mRNA in the presence of chemical substance/The level of expressed mRNA in the absence of chemical substance (yeast gene YOR117W): 1.4; The level of expressed mRNA in the presence of chemical substance/The level of expressed mRNA in the absence of chemical substance (yeast gene YOR124C): 1.3; The level of expressed mRNA in the presence of chemical substance/The level of expressed mRNA in the absence of chemical substance (yeast gene YOR132W): 1.5; The level of expressed mRNA in the presence of chemical substance/The level of expressed mRNA in the absence of chemical substance (yeast gene YOR157C): 1.9; The level of expressed mRNA in the presence of chemical substance/ (in its absence), gene YOR180C (yeast gene YOR180C, ratio of DNA chip fluorescence intensity to that without chemical substance): 1.1; The level of expressed mRNA in the presence of chemical substance/The level of expressed mRNA in the absence of chemical substance (yeast gene YOR181W): 3.4; The level of expressed mRNA in the presence of chemical substance/The level of expressed mRNA in the absence of chemical substance (yeast gene YOR185C): 1.0; The level of expressed mRNA in the presence of chemical substance/ (in its absence), gene YOR251C (yeast gene YOR251C, ratio of DNA chip fluorescence intensity to that without chemical substance): 0.6; The level of expressed mRNA in the presence of chemical substance/The level of expressed mRNA in the absence of chemical substance (yeast gene YOR259C): 1.3; The level of expressed mRNA in the presence of chemical substance/The level of expressed mRNA in the absence of chemical substance (yeast gene YOR261C): 1.3; The level of expressed mRNA in the presence of chemical substance/The level of expressed mRNA in the absence of chemical substance (yeast gene YOR288C): 1.8; The level of expressed mRNA in the presence of chemical substance/ (ratio to absence), gene YOR316C (yeast gene YOR316C, mitochondria-located protein genes, 2 h culture with chemical): 1.5; The level of expressed mRNA in the presence of chemical substance/ (in its absence), gene YOR348C (yeast gene YOR348C, ratio of DNA chip fluorescence intensity to that without chemical substance): 1.6; The level of expressed mRNA in the presence of chemical substance/The level of expressed mRNA in the absence of chemical substance (yeast gene YOR355W): 3.2; The level of expressed mRNA in the presence of chemical substance/ (in its absence), gene YOR363C (yeast gene YOR363C, ratio of DNA chip fluorescence intensity to that without chemical substance): 1.1; The level of expressed mRNA in the presence of chemical substance/The level of expressed mRNA in the absence of chemical substance (yeast gene YOR383C): 1.1; The level of expressed mRNA in the presence of chemical substance/ (ratio to absence), gene YPL040C (yeast gene YPL040C, mitochondria-located protein genes, 2 h culture with chemical): 1.1; The level of expressed mRNA in the presence of chemical substance/ (ratio to absence of chemical substance) (yeast gene YPL059W): 1.0; The level of expressed mRNA in the presence of chemical substance/The level of expressed mRNA in the absence of chemical substance (yeast gene YPL089C): 2.6; The level of expressed mRNA in the presence of chemical substance/The level of expressed mRNA in the absence of chemical substance (yeast gene YPL109C): 1.3; The level of expressed mRNA in the presence of chemical substance/ (ratio to absence), gene YPL134C (yeast gene YPL134C, mitochondria-located protein genes, 2 h culture with chemical): 1.1; The level of expressed mRNA in the presence of chemical substance/ (ratio to absence of chemical substance) (yeast gene YPL140C): 0.7; The level of expressed mRNA in the presence of chemical substance/ (in its absence), gene YPL148C (yeast gene YPL148C, ratio of DNA chip fluorescence intensity to that without chemical substance): 0.6; The level of expressed mRNA in the presence of chemical substance/The level of expressed mRNA in the absence of chemical substance (yeast gene YPL149W): 0.8; The level of expressed mRNA in the presence of chemical substance/The level of expressed mRNA in the absence of chemical substance (yeast gene YPL154C): 4.0; The level of expressed mRNA in the presence of chemical substance/ (ratio to absence of chemical substance) (yeast gene YPL194W): 1.4; The level of expressed mRNA in the presence of chemical substance/ (ratio to absence of chemical substance) (yeast gene YPR005C): 2.7; The level of expressed mRNA in the presence of chemical substance/The level of expressed mRNA in the absence of chemical substance (yeast gene YPR103W): 1.0; The level of expressed mRNA in the presence of chemical substance/The level of expressed mRNA in the absence of chemical substance (yeast gene YPR108W): 1.3; The level of expressed mRNA in the presence of chemical substance/ (in its absence), gene YPR165W (yeast gene YPR165W, ratio of DNA chip fluorescence intensity to that without chemical substance): 0.9; The level of expressed mRNA in the presence of chemical substance/ in its absence, gene YPR184W (energy system protein genes, 2 h culture with the chemical, ratio to control without chemical): 1.5; The level of expressed mRNA in the presence of chemical substance/ in its absence, gene YPR184W (ratio of DNA chip fluorescence intensity to that without chemical substance): 1.5
